Reference: patent US20110028686A1, “Protein binding miniature proteins” (Yale University, priority 2000, published 2011)
Square brackets hold non-standard residues; d marks the D form. Ends that are not written are not given here. Peptide text beside a SMILES is read from it. * marks the point of attachment. Fluorescein(5-NHCOCH2) = O=C(C*)Nc1ccc2c(c1)C(=O)OC21c2ccc(O)cc2Oc2cc(O)ccc21; pS = N[C@@H](COP(=O)(O)O)C(=O)O; Sar = CNCC(=O)O

Key:
Bcl-2 = Bcl-2 (Homo sapiens, UniProt P10415); test: Bcl-2 binding by fluorescence emission of fluorescein-labeled peptide; conditions: read-out: Kd for binding to Bcl-2, 4° C., PBS
Bcl-2, sequence (P10415 1-205): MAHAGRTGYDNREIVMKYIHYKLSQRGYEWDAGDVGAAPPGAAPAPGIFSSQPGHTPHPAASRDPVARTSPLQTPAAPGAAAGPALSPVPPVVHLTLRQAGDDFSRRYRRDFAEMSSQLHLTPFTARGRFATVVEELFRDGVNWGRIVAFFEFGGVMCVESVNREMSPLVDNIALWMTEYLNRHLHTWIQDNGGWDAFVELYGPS

CBP KIX wild type = biological target: T1, CBP KIX wild type (Mus musculus, UniProt P45481); test: Equilibrium fluorescence polarization, wild type CBP KIX; type: binding; conditions: 25° C.
T1 construct: made in house; host or cells: E. coli BL21(DE3) pArg
T1 sequence (P45481 586-665 limits assumed): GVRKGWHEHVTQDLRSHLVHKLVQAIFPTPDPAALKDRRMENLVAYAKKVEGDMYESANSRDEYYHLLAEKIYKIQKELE

catalytic subunit of PKA = catalytic subunit of PKA (Homo sapiens, UniProt P17612); test: Fluorescence polarization, affinity for PKA catalytic subunit; type: binding

| Kd (Bcl-2) | Kd (CBP KIX wild type) | Molecule | other results |
| --- | --- | --- | --- |
| 811 ± 20 nM | – | CC[C@H](C)[C@H](NC(=O)[C@H](CC(=O)O)NC(=O)[C@H](CC(=O)O)NC(=O)CNC(=O)[C@H](Cc1ccccc1)NC(=O)[C@H](Cc1ccc(O)cc1)NC(=O)[C@H](C)NC(=O)[C@H](CC(C)C)NC(=O)[C@H](CC(C)C)NC(=O)[C@H](CCCNC(=N)N)NC(=O)CNC(=O)[C@@H](NC(=O)[C@H](Cc1ccccc1)NC(=O)[C@H](CCCNC(=N)N)NC(=O)[C@@H](NC(=O)[C@H](CC(C)C)NC(=O)[C@H](CC(=O)O)NC(=O)[C@H](CCC(=O)O)NC(=O)[C@@H](NC(=O)[C@@H]1CCCN1C(=O)[C@H](C)NC(=O)[C@H](CC(=O)O)NC(=O)[C@H](CC(=O)O)NC(=O)CNC(=O)[C@@H]1CCCN1C(=O)[C@H](Cc1ccc(O)cc1)NC(=O)[C@@H](NC(=O)[C@@H]1CCCN1C(=O)[C@H](CCC(N)=O)NC(=O)[C@H](CO)NC(=O)[C@@H]1CCCN1C(=O)CN)[C@@H](C)O)C(C)C)[C@@H](C)CC)C(C)C)C(=O)N[C@@H](CC(N)=O)C(=O)N[C@@H](CCCNC(=N)N)C(=O)N[C@@H](CCCNC(=N)N)C(=O)N[C@@H](Cc1ccc(O)cc1)C(=O)N[C@@H](CSCC(=O)Nc1ccc2c(c1)C(=O)OC21c2ccc(O)cc2Oc2cc(O)ccc21)C(N)=O [p4101] (H-GPSQPTYPGDDAPVEDLIRFVGRLLAYFGDDINRRYC(Fluorescein(5-NHCOCH2))-NH2) | – |
| 3700 ± 1400 nM | – | CC[C@H](C)[C@H](NC(=O)[C@H](Cc1ccc(O)cc1)NC(=O)[C@H](CCCNC(=N)N)NC(=O)[C@H](CC(C)C)NC(=O)[C@H](CCCNC(=N)N)NC(=O)[C@H](CO)NC(=O)[C@@H](NC(=O)[C@H](Cc1ccccc1)NC(=O)[C@H](CCCNC(=N)N)NC(=O)[C@@H](NC(=O)[C@H](CC(C)C)NC(=O)[C@H](CC(=O)O)NC(=O)[C@H](CCC(=O)O)NC(=O)[C@@H](NC(=O)[C@@H]1CCCN1C(=O)[C@H](C)NC(=O)[C@H](CC(=O)O)NC(=O)[C@H](CC(=O)O)NC(=O)CNC(=O)[C@@H]1CCCN1C(=O)[C@H](Cc1ccc(O)cc1)NC(=O)[C@@H](NC(=O)[C@@H]1CCCN1C(=O)[C@H](CCC(N)=O)NC(=O)[C@H](CO)NC(=O)[C@@H]1CCCN1C(=O)CN)[C@@H](C)O)C(C)C)[C@@H](C)CC)C(C)C)C(=O)N[C@@H](C)C(=O)N[C@@H](CC(=O)O)C(=O)N[C@@H](CC(C)C)C(=O)N[C@H](C(=O)N[C@@H](CC(N)=O)C(=O)N[C@@H](CCCNC(=N)N)C(=O)N[C@@H](CCCNC(=N)N)C(=O)N[C@@H](Cc1ccc(O)cc1)C(=O)N[C@@H](CSCC(=O)Nc1ccc2c(c1)C(=O)OC21c2ccc(O)cc2Oc2cc(O)ccc21)C(N)=O)[C@@H](C)CC [p4102] (H-GPSQPTYPGDDAPVEDLIRFVSRLRYIADLINRRYC(Fluorescein(5-NHCOCH2))-NH2) | – |
| – | 830 ± 80 nM | CC[C@H](C)[C@H](NC(=O)[C@H](Cc1ccc(O)cc1)NC(=O)[C@H](Cc1ccccc1)NC(=O)[C@H](Cc1ccccc1)NC(=O)[C@H](COP(=O)(O)O)NC(=O)[C@H](CC(C)C)NC(=O)[C@H](CCCNC(=N)N)NC(=O)[C@H](CCCNC(=N)N)NC(=O)[C@@H](NC(=O)[C@@H]1CCCN1C(=O)[C@H](C)NC(=O)[C@H](CC(=O)O)NC(=O)[C@H](CC(=O)O)NC(=O)CNC(=O)[C@@H]1CCCN1C(=O)[C@H](Cc1ccc(O)cc1)NC(=O)[C@@H](NC(=O)[C@@H]1CCCN1C(=O)[C@H](CCC(N)=O)NC(=O)[C@H](CO)NC(=O)CN(C)C(=O)CN)[C@@H](C)O)C(C)C)C(=O)N[C@@H](CC(C)C)C(=O)N[C@@H](CC(C)C)C(=O)N[C@@H](CC(=O)O)C(=O)N[C@@H](CC(C)C)C(=O)N[C@@H](Cc1ccc(O)cc1)C(=O)N[C@@H](CC(C)C)C(=O)N[C@@H](CC(=O)O)C(=O)N[C@@H](C)C(=O)N1CCC[C@H]1C(=O)NCC(=O)N[C@H](C(=O)N[C@@H](CSCC(=O)Nc1ccc2c(c1)C(=O)OC21c2ccc(O)cc2Oc2cc(O)ccc21)C(N)=O)C(C)C [P2Z] (H-G[Sar]SQPTYPGDDAPVRRL[pS]FFYILLDLYLDAPGVC(Fluorescein(5-NHCOCH2))-NH2) | – |

The remaining lines, values behind:

| Molecule | Kd (Bcl-2) | Kd (CBP KIX wild type) | other results |
| --- | --- | --- | --- |
| CC[C@H](C)[C@H](NC(=O)[C@H](CCC(=O)O)NC(=O)[C@H](CC(=O)O)NC(=O)CNC(=O)[C@H](Cc1ccccc1)NC(=O)[C@H](Cc1ccc(O)cc1)NC(=O)[C@H](CCCNC(=N)N)NC(=O)[C@H](CC(C)C)NC(=O)[C@H](CC(C)C)NC(=O)[C@H](CCCNC(=N)N)NC(=O)CNC(=O)[C@@H](NC(=O)[C@H](Cc1ccccc1)NC(=O)[C@H](CCCNC(=N)N)NC(=O)[C@@H](NC(=O)[C@H](CC(C)C)NC(=O)[C@H](CC(=O)O)NC(=O)[C@H](CCC(=O)O)NC(=O)[C@@H](NC(=O)[C@@H]1CCCN1C(=O)[C@H](C)NC(=O)[C@H](CC(=O)O)NC(=O)[C@H](CC(=O)O)NC(=O)CNC(=O)[C@@H]1CCCN1C(=O)[C@H](Cc1ccc(O)cc1)NC(=O)[C@@H](NC(=O)[C@@H]1CCCN1C(=O)[C@H](CCC(N)=O)NC(=O)[C@H](CO)NC(=O)[C@@H]1CCCN1C(=O)CN)[C@@H](C)O)C(C)C)[C@@H](C)CC)C(C)C)C(=O)N[C@@H](CC(N)=O)C(=O)N[C@@H](CCCNC(=N)N)C(=O)N[C@@H](CCCNC(=N)N)C(N)=O [p4100] (H-GPSQPTYPGDDAPVEDLIRFVGRLLRYFGDEINRR-NH2) | 401 ± 40 nM | – | – |
| CC[C@H](C)[C@H](NC(=O)[C@H](Cc1ccc(O)cc1)NC(=O)[C@H](Cc1ccccc1)NC(=O)[C@H](Cc1ccccc1)NC(=O)[C@H](COP(=O)(O)O)NC(=O)[C@H](CC(C)C)NC(=O)[C@H](CCCNC(=N)N)NC(=O)[C@H](CCCNC(=N)N)NC(=O)[C@@H](NC(=O)[C@@H]1CCCN1C(=O)[C@H](C)NC(=O)[C@H](CC(=O)O)NC(=O)[C@H](CC(=O)O)NC(=O)CNC(=O)[C@@H]1CCCN1C(=O)[C@H](Cc1ccc(O)cc1)NC(=O)[C@@H](NC(=O)[C@H](C)NC(=O)[C@H](CCC(N)=O)NC(=O)[C@H](CO)NC(=O)[C@@H]1CCCN1C(=O)CN)[C@@H](C)O)C(C)C)C(=O)N[C@@H](CC(C)C)C(=O)N[C@@H](CC(C)C)C(=O)N[C@@H](CC(=O)O)C(=O)N[C@@H](CC(C)C)C(=O)N[C@@H](Cc1ccc(O)cc1)C(=O)N[C@@H](CC(C)C)C(=O)N[C@@H](CC(=O)O)C(=O)N[C@@H](C)C(=O)N1CCC[C@H]1C(=O)NCC(=O)N[C@H](C(=O)N[C@@H](CSCC(=O)Nc1ccc2c(c1)C(=O)OC21c2ccc(O)cc2Oc2cc(O)ccc21)C(N)=O)C(C)C [P5A] (H-GPSQATYPGDDAPVRRL[pS]FFYILLDLYLDAPGVC(Fluorescein(5-NHCOCH2))-NH2) | – | 1020 ± 90 nM | – |
| CC[C@H](C)[C@H](NC(=O)[C@H](Cc1ccc(O)cc1)NC(=O)[C@H](Cc1ccccc1)NC(=O)[C@H](Cc1ccccc1)NC(=O)[C@H](COP(=O)(O)O)NC(=O)[C@H](CC(C)C)NC(=O)[C@H](CCCNC(=N)N)NC(=O)[C@H](CCCNC(=N)N)NC(=O)[C@@H](NC(=O)[C@@H]1CCCN1C(=O)[C@H](C)NC(=O)[C@H](CC(=O)O)NC(=O)[C@H](CC(=O)O)NC(=O)CNC(=O)[C@@H]1CCCN1C(=O)[C@H](Cc1ccc(O)cc1)NC(=O)[C@@H](NC(=O)[C@@H]1CCCN1C(=O)[C@H](CCC(N)=O)NC(=O)[C@H](CO)NC(=O)[C@@H]1CCCN1C(=O)CN)[C@@H](C)O)C(C)C)C(=O)N[C@@H](CC(C)C)C(=O)N[C@@H](CC(C)C)C(=O)N[C@@H](CC(=O)O)C(=O)N[C@@H](CC(C)C)C(=O)N[C@@H](C)C(=O)N[C@@H](CC(C)C)C(=O)N[C@@H](CC(=O)O)C(=O)N[C@@H](C)C(=O)N1CCC[C@H]1C(=O)NCC(=O)N[C@H](C(=O)N[C@@H](CSCC(=O)Nc1ccc2c(c1)C(=O)OC21c2ccc(O)cc2Oc2cc(O)ccc21)C(N)=O)C(C)C [Y27A] (H-GPSQPTYPGDDAPVRRL[pS]FFYILLDLALDAPGVC(Fluorescein(5-NHCOCH2))-NH2) | – | 3090 ± 180 nM | – |
| CC[C@H](C)[C@H](NC(=O)[C@H](Cc1ccc(O)cc1)NC(=O)[C@H](Cc1ccccc1)NC(=O)[C@H](Cc1ccccc1)NC(=O)[C@H](COP(=O)(O)O)NC(=O)[C@H](C)NC(=O)[C@H](CCCNC(=N)N)NC(=O)[C@H](CCCNC(=N)N)NC(=O)[C@@H](NC(=O)[C@@H]1CCCN1C(=O)[C@H](C)NC(=O)[C@H](CC(=O)O)NC(=O)[C@H](CC(=O)O)NC(=O)CNC(=O)[C@@H]1CCCN1C(=O)[C@H](Cc1ccc(O)cc1)NC(=O)[C@@H](NC(=O)[C@@H]1CCCN1C(=O)[C@H](CCC(N)=O)NC(=O)[C@H](CO)NC(=O)[C@@H]1CCCN1C(=O)CN)[C@@H](C)O)C(C)C)C(=O)N[C@@H](CC(C)C)C(=O)N[C@@H](CC(C)C)C(=O)N[C@@H](CC(=O)O)C(=O)N[C@@H](CC(C)C)C(=O)N[C@@H](Cc1ccc(O)cc1)C(=O)N[C@@H](CC(C)C)C(=O)N[C@@H](CC(=O)O)C(=O)N[C@@H](C)C(=O)N1CCC[C@H]1C(=O)NCC(=O)N[C@H](C(=O)N[C@@H](CSCC(=O)Nc1ccc2c(c1)C(=O)OC21c2ccc(O)cc2Oc2cc(O)ccc21)C(N)=O)C(C)C [L17A] (H-GPSQPTYPGDDAPVRRA[pS]FFYILLDLYLDAPGVC(Fluorescein(5-NHCOCH2))-NH2) | – | 680 ± 50 nM | – |
| GPSQPTYPGDDAPVEDLIRFYNDLTYYLFVVSGRTGRRNAIHDC(Fluorescein(5-NHCOCH2))-NH2 (C-terminus assumed) [1^Flu] | – | – | fold lower stability of PKA complex than PKA·PKI5-24^Flu (catalytic subunit of PKA; 100 μM ATP): 3 fold; Kd (catalytic subunit of PKA; absence of ATP): 230 ± 34 nM; Kd (catalytic subunit of PKA; presence of 100 μM ATP): 99 ± 39 nM |
